Laboratory results: ChEMBL document CHEMBL3259618, “Synthesis, molecular structure, DNA-binding, cytotoxicity, apoptosis and antioxidant activity of compounds containing aryloxazole” (Eur J Med Chem, 2014)
Active and inactive are the calls of the source. The calls are words filed in the database; no cut-off is given here.

Key:
[1] = Antioxidant activity assessed as suppression of hydroxyl radical formation after 30 mins by absorbance analysis; format: functional
[2] = tested on: Escherichia coli; experiment: Induction of Escherichia coli supercoiled pBR322 DNA cleavage assessed as increase in open circular form measured after UV irradiation by agarose gel electrophoresis analysis
[3] = tested on: A549; experiment: Antitumor activity against human A549 cells assessed as growth inhibition after 48 hrs by MTT assay; format: functional, cell-based; conditions: A549, 48 h
[4] = organism: Bos taurus; experiment: Intrinsic binding affinity to calf thymus DNA at 231 nm after 5 mins by electronic absorption analysis
[5] = Antioxidant activity assessed as suppression ratio of hydroxyl radical formation at 1 uM after 30 mins by absorbance analysis; format: functional
[6] = Antioxidant activity assessed as suppression ratio of hydroxyl radical formation at 2 uM after 30 mins by absorbance analysis; format: functional
[7] = Antioxidant activity assessed as suppression ratio of hydroxyl radical formation at 1.5 uM after 30 mins by absorbance analysis; format: functional
[8] = Antitumor activity against human Bel7402 cells assessed as growth inhibition after 48 hrs by MTT assay; format: functional, cell-based; conditions: Bel-7402, 48 h
[9] = Antioxidant activity assessed as suppression ratio of hydroxyl radical formation at 2.5 uM after 30 mins by absorbance analysis; format: functional
[10] = tested on: Escherichia coli; experiment: Induction of Escherichia coli supercoiled pBR322 DNA cleavage assessed as decrease in intact supercoiled form measured after UV irradiation by agarose gel electrophoresis analysis
[11] = tested on: Calf thymus DNA; experiment: Binding affinity to calf thymus DNA assessed as decrease in compound emission intensity at 356 nm at 20 uM by luminescence spectrometer analysis; format: nucleic-acid assay; conditions: Bos taurus
[12] = tested on: Calf thymus DNA; experiment: Binding affinity to calf thymus DNA assessed as hypochromicity at 231 nm at 40 uM after 5 mins by electronic absorption analysis; format: nucleic-acid assay; conditions: Bos taurus
[13] = Antitumor activity against human SKBR3 cells assessed as growth inhibition after 48 hrs by MTT assay; format: functional, cell-based; conditions: SK-BR-3, 48 h
[14] = Antioxidant activity assessed as suppression ratio of hydroxyl radical formation at 3 uM after 30 mins by absorbance analysis; format: functional
[15] = tested on: Calf thymus DNA; experiment: Binding affinity to calf thymus DNA assessed as luminescence intensity at compound to DNA ratio of 1:2 by job plot analysis; format: nucleic-acid assay; conditions: Bos taurus
[16] = Antioxidant activity assessed as suppression ratio of hydroxyl radical formation at 0.5 uM after 30 mins by absorbance analysis; format: functional
[17] = tested on: Calf thymus DNA; experiment: Binding affinity to calf thymus DNA assessed as intercalation by measuring viscosity by viscometer analysis; format: nucleic-acid assay; conditions: Bos taurus
[18] = Antioxidant activity assessed as suppression ratio of hydroxyl radical formation at 3.5 uM after 30 mins by absorbance analysis; format: functional
[19] = Antitumor activity against human MG63 cells assessed as growth inhibition after 48 hrs by MTT assay; format: functional, cell-based; conditions: MG-63, 48 h
[20] = tested on: A549; experiment: Induction of cell cycle arrest in human A549 cells assessed as accumulation at G2/M phase of cell cycle at 25 uM after 24 hrs by propidium iodide staining based flow cytometry (reference value: 14.73%); format: functional
[21] = tested on: Calf thymus DNA; experiment: Binding affinity to calf thymus DNA assessed as hypochromicity at 233 nm at 40 uM after 5 mins by electronic absorption analysis; format: nucleic-acid assay; conditions: Bos taurus
[22] = tested on: A549; experiment: Induction of apoptosis in human A549 cells assessed as apoptotic cells at 25 uM after 24 hrs by flow cytometry (reference value: 0%); format: functional
[23] = tested on: A549; experiment: Induction of apoptosis in human A549 cells after 24 hrs by flow cytometry; format: functional, cell-based
[24] = tested on: A549; experiment: Induction of cell cycle arrest in human A549 cells assessed as accumulation at S phase of cell cycle at 25 uM after 24 hrs by propidium iodide staining based flow cytometry (reference value: 9.8%); format: functional
[25] = tested on: A549; experiment: Induction of apoptosis in human A549 cells assessed as viable cells at 50 uM after 24 hrs by flow cytometry (reference value: 92.28%); format: functional; conditions: A549, 24 h, read-out: Activity
[26] = tested on: A549; experiment: Induction of cell cycle arrest in human A549 cells assessed as accumulation at G0/G1 phase of cell cycle at 25 uM after 24 hrs by propidium iodide staining based flow cytometry (reference value: 73.79%); format: functional
[27] = tested on: A549; experiment: Induction of apoptosis in human A549 cells assessed as viable cells at 25 uM after 24 hrs by flow cytometry (reference value: 92.28%); format: functional; conditions: A549, 24 h, read-out: Activity
[28] = tested on: A549; experiment: Induction of apoptosis in human A549 cells assessed as apoptotic cells at 50 uM after 24 hrs by flow cytometry (reference value: 0%); format: functional
[29] = tested on: A549; experiment: Induction of apoptosis in human A549 cells assessed as necrotic cells at 25 uM after 24 hrs by flow cytometry (reference value: 0.04%); format: functional
[30] = tested on: Calf thymus DNA; experiment: Binding affinity to calf thymus DNA assessed as increase in compound emission intensity at 446 nm at 20 uM by luminescence spectrometer analysis; format: nucleic-acid assay; conditions: Bos taurus
[31] = tested on: Calf thymus DNA; experiment: Binding affinity to calf thymus DNA assessed as luminescence intensity at compound to DNA ratio of 4:1 by job plot analysis; format: nucleic-acid assay; conditions: Bos taurus
[32] = tested on: A549; experiment: Induction of apoptosis in human A549 cells assessed as necrotic cells at 50 uM after 24 hrs by flow cytometry (reference value: 0.04%); format: functional
[33] = organism: Bos taurus; experiment: Intrinsic binding affinity to calf thymus DNA at 233 nm after 5 mins by electronic absorption analysis
[34] = tested on: Calf thymus DNA; experiment: Binding affinity to calf thymus DNA assessed as decrease in compound emission intensity at 705 nm at 20 uM by luminescence spectrometer analysis; format: nucleic-acid assay; conditions: Bos taurus
[35] = tested on: Calf thymus DNA; experiment: Binding affinity to calf thymus DNA assessed as luminescence intensity at compound to DNA ratio of 1:1 by job plot analysis; format: nucleic-acid assay; conditions: Bos taurus

| SMILES | inhibition [1] | Activity [2] | IC50 [3] | Kb [4] | inhibition [5] | inhibition [6] | inhibition [7] | IC50 [8] | inhibition [9] | Activity [10] | Activity [12] | IC50 [13] | inhibition [14] | inhibition [16] | Activity [17] | inhibition [18] | IC50 [19] | other results |
| --- | --- | --- | --- | --- | --- | --- | --- | --- | --- | --- | --- | --- | --- | --- | --- | --- | --- | --- |
| OCc1nc2cc(-c3c(O)ccc4ccccc34)c3ccccc3c2o1 | Dose-dependent effect | Active | > 100 µM | 5.31 ×10³ /M | 9.24% | 23.9% | 12.3% | > 100 µM | 26.9% | Active | 33.4% | > 100 µM | 87.9% | 4.04% | Active | 88.2% | > 100 µM | inhibition [11]: 79.6%; Flu intensity [15]: 0.32 a.u. |
| OCc1nc2cc(-c3c(O)ccc4cc(Br)ccc34)c3cc(Br)ccc3c2o1 | Dose-dependent effect | Active | 59.8 µM | – | 23.5% | 35.9% | 28.3% | 56.4 µM | 52.8% | Active | – | > 100 µM | 80.9% | 15.2% | Active | 86.7% | > 100 µM | Activity [20]: 15.5%; Activity [21]: 34.6%; Activity [22]: 3.57%; Activity [23]: Dose-dependent effect; Activity [24]: 11.16%; viability at 50 µM [25]: 80%; Activity [26]: 71.9%; viability at 25 µM [27]: 83.5%; Activity [28]: 4.09%; Activity [29]: 2.87%; Activity [30]: 5.76%; Flu intensity [31]: 0.8 a.u.; Activity [32]: 3.18%; Kb [33]: 4.44 ×10³ /M |
| CC(=O)OCc1nc2cc(-c3c(OC(C)=O)ccc4ccccc34)c3ccccc3c2o1 | Dose-dependent effect | Active | > 100 µM | 2.64 ×10³ /M | 32.5% | 75.7% | 50.4% | > 100 µM | 81.2% | Active | 29% | > 100 µM | 86.4% | 18.9% | Active | 89% | > 100 µM | inhibition [34]: 60.4%; Flu intensity [35]: 0.54 a.u. |
